Tested on: S. aureus MW2 wild-type
Test: Checkerboard titration end-point bactericidal assay (MBC), Muller-Hinton agar
Assay type: cell-based, Staphylococcus aureus
Details: agent alone
Protocol: FIGS. 15A-15B show checkerboard assays for determining bactericidal assay. Serial two-fold dilutions of 2 mM of Inh2-B1 (MW=411.58 g/mol) and (A) 3 mM ceftriaxone (MW=669.7 g/mol) were made in two separate 96-well plates in vertical (B1-B12 to H1-H2 wells) and horizontal (A2-H2 to A12-H12 wells) directions respectively. Serially diluted Inh2-B1 (100 μL) in the individual well was then mixed with the 100 μL serially diluted ceftriaxone present in the corresponding wells. The resulting various combinations of Inh2-B1 (starting from 1 mM) and ceftriaxone (starting from 1.5 mM) or cefotaxime (2.1 mM) as well as serially diluted one Inh2-B1 (B1 to H1) and ceftriaxone (A2-A12) or cefotaxime (A2-A12) were then incorporated in Muller-Hinton mini agar plates (2 mL). The agar plates were then seeded and diluted S. aureus MW2-wild-type culture equivalent to approximately 23±3 CFU. This checkerboard assay was used to determine the ideal combination of lowest concentration of Inh2-B1 and ceftriaxone that kills 99.9% of the wild-type MW2.
Since the STK1 is not essential for bacterial survival and its absence results in retardation of growth, an end-point bactericidal assay was done, employing the Checkerboard titration method followed by a time-to-kill assay using the broth dilution method. The 96-well plate-based checkerboard titration assays were performed using the fixed number of CFUs of MW2 strain, and the survival of the bacteria was measured on solid agar plates as an end-point result. […] The cut-off value to designate clinical isolates of S. aureus for antibiotics, including Ceftriaxone (TX) and Cefotaxime (CT) as susceptible, is less than 4 μg/ml (i.e., <4.8 μM of TX, and <7 μM of CT). […] CFU counts of MW2-WT grown in the presence of various concentrations of Inh2-B1 were examined over a period of 16 h. […] Similarly, it was also determined CFU counts of MW2-WT and MW2ΔSTK1 strains each grown in the absence or the presence of 50 μM of Inh2-B1 and 1.5 μM Ceftriaxone (1 μg/ml) or […] Cefotaxime (1 μg/ml) for 16 h employing the broth dilution method. […] Further, to address whether MW2 or STK1 could become refractory to a potential combined therapy, the S. aureus MW2 wild-type strain was grown in the presence of suboptimal dose of Inh2-B1 alone and combination with Ceftriaxone and Cefotaxime (25 μM Inh2-B1 and 3 μM of Ceftriaxone or 3 μM Cefotaxime) for consecutive 10 generations.
Subsequently, the susceptibility of S. aureus MW2 strain to Ceftriaxone, Cefotaxime, Inh2, and Inh2-B1 was confirmed by the CLSI recommended serial dilution method using Muller Hinton broth. Minimum bactericidal activity (MBC) was measured using Muller-Hinton agar. Changes in the MBC of Ceftriaxone/Cefotaxime in the presence of serially diluted Inh2-B1 was determined in two steps. Initial screening was carried out using the Checkerboard method using Muller-Hinton agar (FIG. 15). […] Subsequent time to kill assays were carried out using 50 μM Inh2-B1 and Ceftriaxone. Cefotaxime (1 μg/ml) in a final volume of 250 μl using a sterile 96-well (U-bottom) microtiter plate over a period of 16 h at 37° C. under constant rotation (120 rpm). Optical density and corresponding CFU counts were measured at every two-hour interval up to 8 hours with a final overnight reading at the end of incubation period. CFU counts were measured using appropriate dilution of 10 μl of properly mixed samples at each time interval.

## COC(=O)c1ccc2c(=O)[nH]c3c(C(=O)Nc4ccccc4)sc(=S)n3c2c1 [Inh2-B1, Methyl 5-oxo-3-(phenylcarbamoyl)-1-thioxo-4,5dihydro[1,3]thiazolo[3,4-a]quinazoline-8-carboxylate]
Staphylococcus aureus, MW2WILDTYPE, MW2, read-out: Minimum bactericidal concentration (MBC)
  MBC: 100 µM
Further analysis
  concentration up to which growth of MW2 was seen: 90 µM
checkerboard
  concentration of wells with ≥1 CFU of wild-type MW2: ≤ 50 µM
